Assay [1] has as its target KRAS G12V Ba/F3 (Homo sapiens, UniProt P01116, G12V, cells depend on it). The assay is described as follows: Ba/F3 proliferation assay, KRAS G12V. The assay is classed as cell-based. Conditions: 72 h, AlamarBlue, read-out: KRAS G12V Ba/F3 IC50. The procedure:
Plasmids containing KRASG12 mutants(i.e. G12D, G12C, G12V) are obtained from GeneScript. To generate KRASG12-dependent Ba/F3 models, Ba/F3 cells are transduced with retroviruses containing vectors that harbor KRASG12 isoforms. Platinum-E cells (Cell Biolabs) are used for retrovirus packaging. Retrovirus is added to Ba/F3 cells. To ensure infection, 4 μg/mL polybrene is added and cells are spinfected. […] Cells with an infection efficiency of 10% to 20% are further cultivated and puromycin selection with 1 μg/mL is initiated. As a control, parental Ba/F3 cells are used to show selection status. Selection is considered successful when parental Ba/F3 cells cultures died. To evaluate the transforming potential of KRASG12 mutations, the growth medium is no longer supplemented with IL-3. Ba/F3 cells harboring the empty vector are used as a control. Approximately ten days before conducting the experiments, puromycin is left out.
Compounds are added using an Access Labcyte Workstation with a Labcyte Echo 550 or 555 accoustic dispenser. All treatments are performed in technical duplicates. […] AlamarBlue™ (ThermoFisher), a viability stain, is added and fluorescence measured in the PerkinElmer Envision HTS Multilabel Reader. The raw data are imported into and analyzed with the Boehringer Ingelheim proprietary software MegaLab (curve fitting based on the program PRISM, GraphPad Inc.).
For orientation: Resazurin is reduced to fluorescent resorufin, in cell work by metabolically active cells.

Assay [2] deals with T1, KRAS (G12C)::SOS1 (Homo sapiens, UniProt P01116, C118S/C51S/C80L/G12C).
T1 construct: KRAS (G12C) 1-169, N-terminal 6His-tag for purification, cleaved off; 6His-tag (N, cleaved yes); made in house
Kind of assay: KRAS::SOS1 AlphaScreen binding assay, KRAS G12C. Conditions: read-out: KRASG12C IC50. The source says: This assay can be used to examine the potency with which compounds according to the invention binding to (mutated) KRAS inhibit the protein-protein interaction between SOS1 and (mutated) KRAS e.g., KRAS WT, KRAS G12C, KRAS G12D, KRAS G12V, KRAS G13D. […] Low IC50 values in this assay setting are indicative of strong inhibition of protein-protein interaction between SOS1 and KRAS:
These assays measure the inhibitory effect of compounds on KRAS mutant protein-protein interactions using the Alpha Screen technology by Perkin Elmer
The following (mutant) enzyme forms of KRAS and interacting proteins are used in these assays at the given concentrations: • KRAS (G12D) 1-169, N-terminal 6His-tag, C-terminal avi-tag (Xtal BioStructures, Inc.); final assay concentration 10 nM and SOS1 564-1049, N-terminal 229 GST-tag, TEV cleavage site (Viva Biotech Ltd); final assay concentration 5 nM; • KRAS (G12C) 1-169, N-terminal 6His-tag for purification, cleaved off, C-terminal avi-tag, biotinylated, mutations: C51S, C80L, C118S (in house); final assay concentration 7.5 nM and SOS1 564-1049, N-terminal 229 GST-tag, TEV cleavage site (Viva Biotech Ltd); final assay concentration 5 nM; • KRAS (G12V) 1-169, N-terminal 6His-tag for purification, cleaved off, C-terminal avi-tag, biotinylated, TEV cleavage site, mutation: C118S, GDP loaded (in house); final assay concentration 10 nM and SOS1 564-1049, N-terminal 229 GST-tag, TEV cleavage site (Viva Biotech Ltd); final assay concentration 10 nM; • KRAS (G13D) 1-169, N-terminal 6His-tag for purification, cleaved off, C-terminal avi-tag, biotinylated, TEV cleavage site, mutation: C118S, GDP loaded (in house); final assay concentration 10 nM and SOS1 564-1049, N-terminal 229 GST-tag, TEV cleavage site (Viva Biotech Ltd); final assay concentration 10 nM; • KRAS (WT) 1-169, N-terminal 6His-tag for purification, cleaved off, C-terminal avi-tag, biotinylated, TEV cleavage site, mutation: C118S, GDP loaded (in house); final assay concentration 10 nM and SOS1 564-1049, N-terminal 229 GST-tag, TEV cleavage site (Viva Biotech Ltd); final assay concentration 10 nM.
Test compounds dissolved in DMSO are dispensed onto assay plates (Proxiplate 384 PLUS, white, PerkinElmer; 6008289) using an Access Labcyte Workstation with the Labcyte Echo 55×. For the chosen highest assay concentration of 100 μM, 150 nL of compound solution are transferred from a 10 mM DMSO compound stock solution. A series of eleven fivefold dilutions per compound are transferred to the assay plate, compound dilutions are tested in duplicates. DMSO are added as backfill to a total volume of 150 nL.
The assays run on a fully automated robotic system in a darkened room below 100 Lux. To 150 nl of compound dilution 10 μl of a mix including KRAS mutant protein, SOS1 (final assay concentrations see above) and GDP nucleotide (Sigma G7127; final assay concentration 10 μM) in assay buffer (1×PBS, 0.1% BSA, 0.05% Tween 20) are added into columns 1-24.
After 30 minutes incubation time 5 μl of Alpha Screen bead mix in assay buffer are added into columns 1-23. Bead mix consists of AlphaLISA Glutathione Acceptor Beads (PerkinElmer, Cat No AL109) and AlphaScreen Streptavidin Donor Beads (PerkinElmer Cat No 6760002) in assay buffer at a final assay concentration of 10 μg/ml each.
Plates are kept at room temperature in a darkened incubator. After an additional 60 minutes incubation time the signal is measured in a PerkinElmer Envision HTS Multilabel Reader using the AlphaScreen specs from PerkinElmer.
Each plate contains up to 16 wells of a negative control depending on the dilution procedure (platewise or serial) (DMSO instead of test compound; with KRAS mutant::SOS1 GDP mix and bead mix; column 23) and 16wells of a positive control (DMSO instead of test compound; with KRAS mutant::SOS1 GDP mix w/o bead mix; column 24).
As internal control known inhibitors of KRAS mutant::SOS1 interaction can be measured on each compound plate. […]
(In Alpha technology, singlet oxygen from a donor bead excites a nearby acceptor bead.)

Assay [3] relates to LOVO cells. Kind of assay: LOVO CTG proliferation assay (120 h) (CRC, G13D). Format: cell-based. Conditions: Homo sapiens. The procedure:
LOVO cells (ATCC CCL-229) are dispensed into 384-well plates, flat and clear bottom (Greiner, PNr. 781091) at a density of 1000 cells per well in 60 μL DMEM (Sigma D6429)+10% Fetal Calf Serum (HyClone, PNr.: SH30084.03) and incubated at 37° C. in a CO2 incubator overnight. The next day, compounds (10 mM stock in DMSO) are added with the ECHO acoustic liquid handler system (Beckman Coulter), including DMSO controls. Plates are incubated for 120 h, and cell viability is measured using CellTiter-Glo luminescent cell viability reagent (Promega product code G7570). Viability (stated as percent of control) is defined as relative luminescence units RLU of each well divided by the RLU of cells in DMS0 controls. IC50 values are determined from viability measurements by non-linear regression using a four-parameter model.

Structures are written as SMILES.

T1 sequence (P01116 1-169 isoform P01116-2 G12C/C51S/C80L/C118S): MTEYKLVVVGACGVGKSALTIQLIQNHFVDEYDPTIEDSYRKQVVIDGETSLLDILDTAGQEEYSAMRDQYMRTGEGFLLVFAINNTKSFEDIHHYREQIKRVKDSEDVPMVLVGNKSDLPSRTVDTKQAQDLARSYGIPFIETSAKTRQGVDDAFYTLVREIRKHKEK
Sequence of KRAS G12V Ba/F3 (P01116 whole entry G12V, canonical isoform): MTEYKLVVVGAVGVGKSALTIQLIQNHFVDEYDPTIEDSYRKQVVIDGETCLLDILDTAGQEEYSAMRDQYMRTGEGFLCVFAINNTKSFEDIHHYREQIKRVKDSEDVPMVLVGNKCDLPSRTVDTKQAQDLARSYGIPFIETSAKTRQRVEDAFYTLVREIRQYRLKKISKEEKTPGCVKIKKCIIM

The IC50 is the concentration needed to halve the response being measured. Take `COCCOc1cc(O[C@@H](C)[C@@H]2CCCN2C)nc(-c2noc3c2CCC[C@@]32CCCc3sc(N)c(C#N)c32)n1` [II-5]: the GI50 in assay [1] came to 7 nM. Also, the IC50 in assay [2] was found to be 2 nM; in assay [3] it was 117 nM.

Regarding `C[C@H](Oc1cc(Sc2ncccn2)nc(-c2onc3c2CCC[C@@]32CCCc3sc(N)c(C#N)c32)n1)[C@@H]1CCCN1C` [Example I-7], in assay [1], the GI50 stood at 31 nM. Besides, the figures for the IC50 in assay [2] and in assay [3] were 5 nM and 3240 nM, respectively.

`C[C@H](Oc1cc(NCC2COC2)nc(-c2noc3c2CCC[C@@]32CCCc3sc(N)c(C#N)c32)n1)[C@@H]1CCCN1C` [II-11]: the GI50 in assay [1] was 29 nM. Further, the IC50 was determined as 2 nM in assay [2] and 568 nM in assay [3].

`C[C@H](Oc1cc(Nc2ncco2)nc(-c2noc3c2CCC[C@@]32CCCc3sc(N)c(C#N)c32)n1)[C@@H]1CCCN1C` [II-13]: the GI50 in assay [1] was 10 nM. In addition, the values for the IC50 in assay [2] and in assay [3] were 2 nM and 500 nM, respectively.

As for `C[C@H](Oc1cc(Nc2ccccn2)nc(-c2onc3c2CCC[C@@]32CCCc3sc(N)c(C#N)c32)n1)[C@@H]1CCCN1C` [Example I-6], the GI50 in assay [1] was 14 nM. For the same molecule, the values for the IC50 in assay [2] and in assay [3] were 3 nM and 595 nM, respectively.

For the molecule `C[C@H](Oc1cc(Oc2cncnc2)nc(-c2onc3c2CCC[C@@]32CCCc3sc(N)c(C#N)c32)n1)[C@@H]1CCCN1C` [Example I-3], the GI50 in assay [1] is 2 nM. The results for the IC50 in assay [2] and in assay [3] were 1 nM and 35 nM, respectively.

Regarding `C[C@H]1CN(C)CCCN1c1cc(O[C@@H]2CNC2(C)C)nc(-c2noc3c2CCC[C@@]32CCCc3sc(N)c(C#N)c32)n1` [II-28], the GI50 in assay [1] turned out to be 2040 nM. Further, the IC50 in assay [2] was 6 nM; in assay [3], 3380 nM.

For `C[C@H](Oc1cc(Oc2cccnc2)nc(-c2onc3c2CCC[C@@]32CCCc3sc(N)c(C#N)c32)n1)[C@@H]1CCCN1C` [Example I-2], the GI50 in assay [1] amounted to 2 nM. Further, the values for the IC50 in assay [2] and in assay [3] were 1 nM and 32 nM, respectively.

Regarding `C[C@H](Oc1cc(Oc2ccon2)nc(-c2noc3c2CCC[C@@]32CCCc3sc(N)c(C#N)c32)n1)[C@@H]1CCCN1C` [II-3], the GI50 in assay [1] was found to be 9 nM. Moreover, the IC50 in assay [2] amounted to 2 nM; in assay [3] it was 102 nM.

As to `C[C@H](Oc1cc(N(C)CCN(C)C)nc(-c2noc3c2CCC[C@@]32CCCc3sc(N)c(C#N)c32)n1)[C@@H]1CCCN1C` [II-20], the GI50 in assay [1] was 303 nM. The IC50 in assay [2] is 10 nM; in assay [3], 139 nM.

Take `C[C@H](Oc1cc(OCC2(N(C)C)COC2)nc(-c2onc3c2CCC[C@@]32CCCc3sc(N)c(C#N)c32)n1)[C@@H]1CCCN1C` [Example I-8]: the GI50 in assay [1] stood at 85 nM. Also, the concentration for half-maximal inhibition (IC50) in assay [2] came out at 2 nM; in assay [3] it was 27 nM.

Take `C[C@H](Oc1cc(OCC2(N(C)C)CC2)nc(-c2noc3c2CCC[C@@]32CCCc3sc(N)c(C#N)c32)n1)[C@@H]1CCCN1C` [II-21]: the GI50 in assay [1] was 237 nM. The IC50 in assay [2] was determined as 3 nM; in assay [3], 186 nM.

Take `C[C@H](Oc1cc(Nc2ccncn2)nc(-c2noc3c2CCC[C@@]32CCCc3sc(N)c(C#N)c32)n1)[C@@H]1CCCN1C` [II-15]: in assay [1], the GI50 was 12 nM. Also, the IC50 in assay [2] was 3 nM; in assay [3], 708 nM.

These data come from patent US20250129095A1, “ANNULATED 2-AMINO-3-CYANO THIOPHENES AND DERIVATIVES FOR THE TREATMENT OF CANCER” (Boehringer Ingelheim Int'l GmbH Corp., priority 2021, published 2025).
